Experiment: Inhibition of human Src expressed in rat fibroblasts assessed as anchorage independent growth after 3 days

IC50: > 10 µM
Compound: COc1cc(Nc2c(C#N)cnc3cc(-c4ncccc4CN4CCOCC4)ccc23)c(Cl)cc1Cl [4-(2,4-dichloro-5-methoxyphenylamino)-7-(3-(morpholinomethyl)pyridin-2-yl)quinoline-3-carbonitrile]
